Results taken from publication PMC2862740, “Furin Targeted Drug Delivery for Treatment of Rhabdomyosarcoma in a Mouse Model” (PLoS ONE, 2010).
“Also recorded” adds a separate entry of the source. Positions of bridges follow the written chain, without caps; N, C: chain ends. No end group written: not given here.

Columns and labels:
[1] = test system: RD cells; assay: phage binding to RD cells; assay type: cell-based
Procedure: (§1) Figure 1 Validation of selected phages binding on RMS cells in vivo and in vitro. (A) Quantification of binding of single phage clones to different cell lines. Six phages selected from in vitro and in vivo screenings were validated individually in binding assays to three RMS cell lines (embryonal RMS: RD; alveolar RMS: Rh30 and Rh4) as well as to normal myoblasts (SkMC-c) and fibroblast cells (MRC-5). Phage clones are ordered according to the frequency of occurrence. Binding was calculated over non-recombinant T7, depicted are mean values ± SD of three independent experiments. (B) RMS-P3 and RMS-P6 phage distribution in RD mouse xenografts. Homing of phages to tumor was compared to control organs. Binding was normalized over phage T7 and tissue weight. Mean values ± SD of four independent experiments are shown. Numerical values for tumor to organ ratios are indicated above the bars. (C) Validation of RMS-P3 peptide sequence by competition of phage binding. 10^6 RD cells were incubated for 30 min with increasing concentrations of RMS-P3 peptide ([…]) or control peptide ([…]). Then, phages (10^9 pfu) were added for 1 h. Phage binding was normalized over non-recombinant T7. Data are presented as percentage of maximal phage binding obtained in the absence of synthetic peptide. Error bars indicate mean ± SD from three independent experiments. […]
Figure 3 Identification of the receptor for RMS-P3. […] Phage binding was quantified over non-recombinant T7 and compared to the binding of wild type phage RMS-P3. […] After tail vein injection of both FITC-RMS-P3/RR or control peptide RMS-P3/AA and circulation of 10 min, mice were perfused, tumors and control organs were dissected and FITC-peptide distribution (green) was evaluated in cryosections under fluorescence microscopy. […] (C) Expression of proprotein convertases (PCs) measured by microarray profiling of 9 RMS cell lines and 30 RMS biopsy samples. […] Immature membrane-bound furin was detected at 103 kD, mature furin at 97 kD. […]

[2] = test system: Rh4 cells; assay: phage binding to Rh4 cells; assay type: cell-based; conditions: three independent experiments
Procedure: as §1

[3] = test system: Rh30 cells; assay: phage binding to Rh30 cells; assay type: cell-based; conditions: three independent experiments
Procedure: as §1

[4] = test system: RD xenograft tumors; assay: phage homing in RD xenografts; assay type: in vivo, mouse; conditions: for phage binding to tumors versus any other organ: RD (or Rh4) xenografts, One-way ANOVA and Tukey-Kramer HSD
Procedure: Figure 1 Validation of selected phages binding on RMS cells in vivo and in vitro. (A) Quantification of binding of single phage clones to different cell lines. Six phages selected from in vitro and in vivo screenings were validated individually in binding assays to three RMS cell lines (embryonal RMS: RD; alveolar RMS: Rh30 and Rh4) as well as to normal myoblasts (SkMC-c) and fibroblast cells (MRC-5). Phage clones are ordered according to the frequency of occurrence. Binding was calculated over non-recombinant T7, depicted are mean values ± SD of three independent experiments. (B) RMS-P3 and RMS-P6 phage distribution in RD mouse xenografts. Homing of phages to tumor was compared to control organs. Binding was normalized over phage T7 and tissue weight. Mean values ± SD of four independent experiments are shown. Numerical values for tumor to organ ratios are indicated above the bars. (C) Validation of RMS-P3 peptide sequence by competition of phage binding. 10^6 RD cells were incubated for 30 min with increasing concentrations of RMS-P3 peptide ([…]) or control peptide ([…]). Then, phages (10^9 pfu) were added for 1 h. Phage binding was normalized over non-recombinant T7. Data are presented as percentage of maximal phage binding obtained in the absence of synthetic peptide. Error bars indicate mean ± SD from three independent experiments. […] TEXT PRINTED IN THE PICTURE: (B) RMS-P6: tumor: 1; muscle: 1/6; kidney: 1/8; brain: 1/28; skin: 1/12 | (B) RMS-P3: tumor: 1; muscle: 1/24; kidney: 1/15; brain: 1/12; skin: 1/10 DOUBTS OF THE COPYIST ABOUT THIS PICTURE: Panel B: the picture prints no measure for the numbers over the bars. Each tissue name was assigned from the bar fill and the order of the printed key. / RMS-P6, brain: 1/28, the last digit may be 8 or 6 (small print)
Phage (10^10 pfu) from in vitro biopannings were tail vein injected into mice bearing size-matched RMS tumors (500 mm^3) as described in [57].

[5] = test system: membrane-bound furin; assay: peptide affinity chromatography, RD-FUR lysate; assay type: binding; conditions: western blot, 97kDa
Procedure: (§2) Figure 5 RMS-P3/RR peptide binds directly to furin and inhibits its activity. Lysates of RD-FUR cells (approximately 1 mg of total protein, upper rows) or purified recombinant furin (250 ng; lower rows) were loaded on a RMS-P3/RR column (A) or on the control peptide column RMS-P3/AA (B). The columns were washed 10 times to remove unbound furin. The loaded RMS-P3/RR-column was eluted first with control peptide RMS-P3/AA, then with peptide RMS-P3/RR. The RMS-P3/AA column was eluted first with RMS-P3/RR and subsequently cross-eluted with the control peptide RMS-P3/AA. The presence of furin in aliquots from the columns (1) after binding, (2) flow through, (3) last wash, (4) control elution and (5) competitive elution with RMS-P3/RR (in A) and […] (in B), respectively, was detected by western blotting. (C) Fixed amounts of recombinant furin (3.3U) were incubated with increasing concentrations of RMS-P3/RR peptide or with control peptide (RMS-P3/AA). Furin activity was measured with the fluorogenic substrate Boc-RRVR-AMC at excitation 370 nm/emission 460 nm. The results of three independent experiments ± SD are shown.
(§3) RMS-P3/RR or control peptide RMS-P3/AA were dissolved in 0.2 M phosphate buffer pH 7.2 to 1 mg/ml and covalently linked to NHS-activated sepharose matrix SpinTrapTM (GE Healthcare, Amersham Biosciences, Switzerland). […]

[6] = test system: recombinant human furin; assay: peptide affinity chromatography, recombinant furin; assay type: binding; conditions: recombinant human furin without membrane-domain (81 kD), overnight at 4°C, western blot
Procedure: as §2, §3

[7] = test system: recombinant human furin; assay: furin activity, fluorogenic substrate Boc-RRVR-AMC; assay type: biochemical
Procedure: The enzymatic activity of furin was determined by the cleavage of the fluorogenic substrate Boc-RRVR-AMC (Alexis biochemicals) in presence or absence of peptides. Human recombinant furin (3.3U for reaction; Alexis biochemicals) was preincubated for 15 minutes at RT with the peptide RMS-P3/RR or the peptide RMS-P3/AA as negative control at increasing concentrations. For each assay, the same concentration of substrate (100 µM) was added to a solution containing 50 mM Tris HCl with 1 mM CaCl2 (pH 7) in a total volume of 100 µl. The reaction was followed for 1h while measuring the fluorescence every 10 minutes in a spectrofluorometer at excitation 370 nm/emission 460 nm.

[8] = test system: MDA-MB 231 cells; assay: phage binding to breast carcinoma cells; assay type: cell-based; conditions: compared to myoblasts and fibroblasts; p<0.05
Procedure: (§4) Supplementary file pone.0010445.s001.tif: Figure S1 Phage selection and validation on RMS cells in vivo and in vitro. (A) Biopanning on RD cells in vitro after negative selection on myoblasts (panning I) and (B) fibroblasts (panning II). Enrichment was calculated over non-recombinant phage T7. (C) In vivo selection in Rh4 xenografts. Phages from in vitro selection before enrichment were pooled and used for in vivo selection in Rh4 xenografts. Phages were injected in the tail vein and after 10 min circulation unbound phages were washed by perfusion. Phage binding to tumors and control organs was calculated over non-recombinant phage T7. (D) RMS-P3 and RMS-P6 phage distribution in Rh4 xenografts. Homing of phages in mouse xenografts bearing Rh4 tumors was determined and compared to control organs. Binding was normalized over phage T7 and tissue weight. Mean values of three independent experiments are shown. Numerical values for tumor to organ ratios are indicated above the bars. (E) Quantification of binding of RMS-P3 phage to a panel of tumor cell lines: RMS (RD, Rh30, Rh4), breast tumor (MDA-MB 231), glioblastoma (U87MG), melanoma (A365); and normal myoblasts (SkMC-c) and fibroblast cells (MRC-5). Mean values ± SD of three independent experiments are depicted. (0.55 MB TIF) Click here for additional data file.

[9] = test system: U87MG cells; assay: phage binding to glioblastoma cells; assay type: cell-based; conditions: compared to myoblasts and fibroblasts; p<0.05
Procedure: as §4

[10] = test system: A365 cells; assay: phage binding to melanoma cells; assay type: cell-based; conditions: compared to myoblasts and fibroblasts; p<0.05
Procedure: as §4

[11] = test system: Rh4 xenograft tumors; assay: phage homing in Rh4 xenografts; assay type: in vivo, mouse; conditions: aRMS (Rh4) xenograft
Procedure: as §4

[12] = test system: RD xenograft tumors and control organs; assay: FITC-peptide distribution in xenograft mice; assay type: in vivo, mouse; conditions: RD xenografts, i.v., 10 min circulation
Procedure: Figure 2 FITC-labeled RMS-P3 binding in vitro and distribution in vivo. (A) Visualization of FITC-RMS-P3 peptide binding in normal and cancer cells in vitro. Cultured myoblasts (SkMC-c), fibroblasts (MRC-5), RMS cells (RD) and breast carcinoma cells (MDA-MB 231) were incubated with 100 nM FITC-RMS-P3 peptide for 1 h at 37°C. Fluorescence microscopy of fixed cells is shown. (B) Living RD cells were incubated with FITC-RMS-P3 peptide, subsequently fixed and stained with giantin (red). Colocalization is shown in the merged picture by yellow. Blue staining (DAPI) indicates the nuclei. Magnifications: 40x, scale bars: 20 µm. (C) Distribution of FITC-RMS-P3 and control peptide FITC-RMS-Pctrl in mice xenografts of RD cells. FITC-RMS-P3 or control FITC-RMS-Pctrl peptide were injected i.v. and after 10 minutes of circulation, mice were perfused and tumor and control organs were collected. Cryosections were double-labeled with mouse endothelial vessels markers CD31 and MECA-32 (red). Nuclear staining by DAPI is shown in blue. Magnifications: 40x, scale bars: 20 µm.
Figure 3 Identification of the receptor for RMS-P3. (A) Alanine-scan of the RMS-P3 sequence. RMS-P3 was mutated by replacing each amino acid residue with alanine (codon GCT). All phage mutants were tested individually for binding to RD cells in vitro. Mutated residues are indicated in bold. Phage binding was quantified over non-recombinant T7 and compared to the binding of wild type phage RMS-P3. Depicted are mean values ± SD of three independent experiments. […] (B) FITC-RMS-P3/RR and FITC-RMS-P3/AA distribution in RD xenograft mice. After tail vein injection of both FITC-RMS-P3/RR or control peptide RMS-P3/AA and circulation of 10 min, mice were perfused, tumors and control organs were dissected and FITC-peptide distribution (green) was evaluated in cryosections under fluorescence microscopy. Blood endothelial stainings (CD31 and MECA32) are shown in red, nuclear staining in blue (DAPI). Magnification: 20x, scale bar 50 µm. (C) Expression of proprotein convertases (PCs) measured by microarray profiling of 9 RMS cell lines and 30 RMS biopsy samples. Expression of PCs recognizing the cleavage site R(X)(R/K)(R/K) were considered. Each cell line or biopsy is represented by one data point. (D) Furin expression in different cell lines. Normal myoblasts (SkMC-c), fibroblasts (MRC-5), RMS cell lines (RD, Rh4, Rh30), furin-deficient colorectal carcinoma cells (LoVo) and furin-positive breast carcinoma cells (MBA-MB 231) were tested for furin expression by qRT-PCR (upper graph). […] Western blot (lower panels). Immature membrane-bound furin was detected at 103 kD, mature furin at 97 kD. PCNA was used as loading control.
Figure 6 FITC-RMS-P3/RR and FITC-RMS-P3/AA distribution in mice bearing RD xenografts. Peptides were injected i.v. and after circulation the mice were perfused, tumors and control organs were removed and peptide distribution was evaluated on cryosections by fluorescence microscopy. Depicted are overlay images (B, upper left panel) and single channel pictures. FITC-peptide stainings (green), either furin or endothelial stainings (CD31, MECA32) in red and cell nuclei in blue (DAPI) are shown. Magnification: 40x, scale bars 50 µm.
Supplementary file pone.0010445.s002.tif: Figure S2 Subcellular localization of FITC-RMS-P3 peptide. (A, B) FITC-RMS-P3/RR cell surface and intracellular localization. RD cells were incubated with 100 nM FITC-RMS-P3 peptide in vitro for 30 min at 4°C (A) or 37°C (B), respectively. Fixed cells were stained with undiluted 5.1H11 hybridoma supernatant against the human muscle-specific cell surface antigen N-CAM (red). A secondary rabbit anti-mouse Cy3 antibody (1∶300, Invitrogen) was used for detection. […] Cell nuclei were visualized with DAPI. Nuclei are indicated in grey. Magnification: 63x, scale bars: 20 µm. […]

[13] = target: recombinant human furin without membrane-domain (81 kD) (human) (UniProt P09958)

## CMGTTNTRTKKC (disulfide 1-12 (inferred)) [RMS-P6]
[1]; RD cells, three independent experiments
  phage binding compared to non-recombinant phage T7: 1270 fold
[2]
  phage binding compared to non-recombinant phage T7: 230 fold
[3]
  phage binding compared to non-recombinant phage T7: 120 fold
[4]
  phage binding to tumors versus any other organ: bound significantly better to tumors than to any other organ

## CMGTINTRTRRC (disulfide 1-12 (inferred)) [RMS-P3/RR]
[1]; both Lys replaced by Arg, One-way ANOVA, Tukey Kramer HSD, p<0.05 vs all other alanine mutants
  phage binding to RD cells compared to RMS-P3: no significant difference in binding to RD cells
[5]
  furin in competitive eluate from peptide column: competitive eluates contained detectable amounts of membrane-bound furin
[6]
  binding of recombinant furin to peptide column: detected a furin band in the specific eluate
[7]; 100 µM peptide, % of the control, furin 3.3U, 15 min preincubation RT, substrate 100 µM, 50 mM Tris HCl, 1 mM CaCl2, pH 7, three independent experiments
  furin activity remaining: 14 % of the control
[7]; increasing concentrations
  effect on furin activity: concentration dependent decrease of furin activity

## CMGTINTRTKKC (disulfide 1-12 (inferred)) [phage RMS-P3]
[8]
  phage binding to breast carcinoma cells: significant binding; also recorded: very good binding
[9]
  phage binding to glioblastoma cells: significant binding; also recorded: very good binding
[10]
  phage binding to melanoma cells: significant binding; also recorded: very good binding
[4]
  phage binding to tumors versus any other organ: bound significantly better to tumors than to any other organ
[4]; phage, eRMS (RD) xenograft
  tumor/muscle ratio: 24 fold
[11]
  tumor/muscle ratio: 24 fold

## CMGTINTATAAC (disulfide 1-12 (inferred)) [RMS-P3/AA]
[1]; alanine-scan, RD cells, three independent experiments, p<0.05
  decrease in phage binding compared to RMS-P3: 70 fold
[12]
  peptide uptake in kidney: found in the kidneys
[12]; cryosections
  peptide accumulation in tumor: did not accumulate in the tumor; also recorded: No fluorescence was detectable
[5]
  furin in competitive eluate from peptide column: not the case
[6]
  binding of recombinant furin to peptide column: did not bind recombinant furin

B1: RMS-P3/RR peptide (peptide)
peptide: CMGTINTRTRRC
modifications: not fully specified (bridges); also: cyclic peptide, mode of cyclisation not given here
[13]
  furin activity (cleavage of the fluorogenic substrate Boc-RRVR-AMC by 3.3U recombinant furin) with increasing concentrations of RMS-P3/RR (10-100 µM); activity left at 100 µM (% of the control): 14
